{"source": "patent US8574605B2", "about": "“Methods for the preparation of concentrated aqueous bromine solutions and high activity bromine-containing solids” (Enviro Tech Chemical Services, Inc., priority 2004, dated 2013)", "assay": "Dissolution of the crystalline solid in water", "assay_type": "physicochemical", "conditions": "weighed amount of crystalline mass dissolved in water", "experimental": "The slurry was stirred and 50% NaOH (102.7 g) was slowly added as the flask was chilled in an ice bath to keep the temperature of the flask contents at around 75° F. Using a dropping funnel, elemental bromine (67.3 g) was dispensed at a rate of about one drop per second to the reaction medium, also with stirring and cooling to maintain a reaction temperature of 68° F. When the bromine addition was complete, the pH of the reaction medium was measured to be 1.97. A single charge of powdered trichloroisocyanuric acid (90.4% available Cl2) (33.1 g) was then delivered to the reaction medium through one of the necks of the flask. Stirring and cooling continued as normal as a fine powdery precipitate of cyanuric acid developed. After 10 minutes, 50% NaOH (11 g) was added dropwise in order to diminish the amount of bromine vapors that were fuming from the reaction medium. The cyanuric acid precipitate was then removed by vacuum filtration. […] The supernatant liquid above the crystals analyzed as 22.7% as Br2 (10.1% as Cl2), indicating the aqueous phase was losing active ingredient at the expense of crystal growth. […]"}
{"molecule": "O.O=S(=O)([O-])NBr.[Na+]", "note": "[hydrated sodium N-bromosulfamate]", "values": [{"measurement": "dissolution in water", "value": "dissolved rapidly and completely"}]}
